Experimental findings from PubChem BioAssay (NCI) are described below.

Some test systems named below: OVCAR-8 ovarian; HCC-2998 colon; PC-3 prostate; UACC-257 melanoma; NCI-H460 lung; SNB-19 CNS; UO-31 renal; KM12 colon; SK-MEL-2 melanoma; EKVX NSCLC.
What all share (assay): inhibition of tumour cell growth, NCI panel, 48 h

Molecules are shown by their SMILES.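 Protocol summary: plate cells (96-well), add compound at 5 concentrations, incubate 48 h, interpolate endpoints linearly. GI50: concentration for 50% inhibition of growth. TGI is the concentration that stops growth completely.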

Consider `Cc1cc(N2CCN(c3ccnc4cc(Cl)ccc34)CC2)nc(NC2CCCCC2)n1`, for which the GI50 in the test with OVCAR-8 ovarian was 2.39 µM; in the test with HCC-2998 colon, 2 µM; in the test on PC-3 prostate, 1.47 µM; with UACC-257 melanoma, 1.86 µM; in the test with NCI-H460 lung, 1.88 µM; in the test with SNB-19 CNS it was 2.98 µM. The GI50 in the test with UO-31 renal was 1.4 µM; in the test with KM12 colon, 2.56 µM. The TGI was determined as 6.35 µM in the test on OVCAR-8 ovarian; 3.84 µM in the test on HCC-2998 colon; 3.02 µM in the test with PC-3 prostate; 3.92 µM in the test with UACC-257 melanoma; 3.71 µM in the test on NCI-H460 lung; 11 µM in the test with SNB-19 CNS. The figures for the TGI in the test on UO-31 renal and in the test with KM12 colon were 3.13 µM and 6.27 µM, respectively.

As to `C[C@@H]1N=C(c2ccc(Br)cc2)Nc2nc3ccccn3c2C1=O`, the GI50 is 17 µM in the test on OVCAR-8 ovarian; 15.7 µM with SK-MEL-2 melanoma; 21.9 µM in the test with HCC-2998 colon; 5.7 µM in the test on PC-3 prostate; 35.2 µM with UACC-257 melanoma; 3.06 µM with NCI-H460 lung. Further, the GI50 in the test on SNB-19 CNS was 7.45 µM; in the test with UO-31 renal, 8.11 µM; in the test on KM12 colon, 3.39 µM. For the same compound, the TGI in the test with OVCAR-8 ovarian, in the test on SK-MEL-2 melanoma, in the test on HCC-2998 colon, with PC-3 prostate, in the test with UACC-257 melanoma and in the test with NCI-H460 lung was above 100 µM in each case. Further, the TGI in the test with SNB-19 CNS, with UO-31 renal and in the test on KM12 colon was above 100 µM in each case.

Consider `COc1ccc(C2=C(c3ccc(OC)c(OC)c3)C(=O)OC2)cc1`, for which the GI50 was 0.0451 µM in the test on OVCAR-8 ovarian; below 0.0301 µM in the test with PC-3 prostate; above 47.4 µM in the test with UACC-257 melanoma; 0.263 µM in the test on SNB-19 CNS; 0.116 µM with UO-31 renal; 1.95 µM in the test with EKVX NSCLC. Moreover, the TGI with OVCAR-8 ovarian, in the test with SK-MEL-2 melanoma, in the test on PC-3 prostate, in the test with UACC-257 melanoma, in the test with NCI-H460 lung and in the test with SNB-19 CNS was above 100 µM each time. The TGI is above 85.9 µM with UO-31 renal, 3.34 µM with KM12 colon and above 100 µM with EKVX NSCLC.

Consider `CCOC(=O)NC(=O)c1cn(CCCOC(=O)CCCCCCCCCCC(=O)OCCCn2cc(C(=O)NC(=O)OCC)c(=O)n(C)c2=O)c(=O)n(C)c1=O`, for which the TGI with OVCAR-8 ovarian, with SK-MEL-2 melanoma, in the test with HCC-2998 colon, in the test on UACC-257 melanoma, in the test on NCI-H460 lung and in the test on SNB-19 CNS was above 100 µM throughout. Moreover, the TGI with UO-31 renal, with KM12 colon and with EKVX NSCLC was above 100 µM each time.

Take `O=c1[nH]ccc2nc(N3CCC(O)CC3)nc(Nc3cccc(C(F)(F)F)c3)c12`: the GI50 with OVCAR-8 ovarian was 3.29 µM; with HCC-2998 colon it was 11.2 µM; in the test with PC-3 prostate, 2.29 µM; with UACC-257 melanoma, 4.24 µM; in the test on NCI-H460 lung, 1.62 µM; in the test with SNB-19 CNS, 18.1 µM. Also, the GI50 in the test on UO-31 renal is 0.785 µM; in the test on KM12 colon it was 1.44 µM; in the test on EKVX NSCLC, 2.85 µM. Moreover, the TGI in the test with OVCAR-8 ovarian is 40.6 µM; in the test on HCC-2998 colon, 38.4 µM; in the test on PC-3 prostate, 13 µM; with UACC-257 melanoma, 13 µM; in the test with NCI-H460 lung, 15 µM; in the test with SNB-19 CNS, above 100 µM. Further, the TGI in the test on UO-31 renal was found to be 23 µM; with KM12 colon, 5.42 µM; with EKVX NSCLC it was 12.1 µM.

On to `O=C(O)CC12C3C4C5C3C1C5C42` (stereo not drawn), for which the TGI in the test on OVCAR-8 ovarian, with SK-MEL-2 melanoma, in the test on HCC-2998 colon, with UACC-257 melanoma, with NCI-H460 lung and with SNB-19 CNS was above 100 µM throughout. Also, the TGI in the test with UO-31 renal, with KM12 colon and in the test on EKVX NSCLC was above 100 µM in each case.

`CCCCCCCCCCC(O)C1CCC(C(O)CCC(O)C2CCC(CCCCCCC[C@H](O)CC3=C[C@@H](C)OC3=O)O2)O1` (stereo partly drawn): the GI50 is 7.39 µM with OVCAR-8 ovarian, 0.461 µM in the test on UACC-257 melanoma and 4.16 µM in the test on EKVX NSCLC. Also, the TGI with OVCAR-8 ovarian is 34 µM; in the test on SK-MEL-2 melanoma, above 100 µM; with HCC-2998 colon, above 100 µM; in the test on UACC-257 melanoma, above 100 µM; in the test with NCI-H460 lung, above 100 µM; in the test with SNB-19 CNS, above 88.3 µM. Also, the TGI in the test with UO-31 renal was above 86.1 µM; in the test with KM12 colon it was 68.1 µM; in the test with EKVX NSCLC it was above 100 µM.

As to `COc1ccc2c(CN3CCC[C@H]3C(=O)O)cc3cc4c(cc3c2c1)OCO4`, the GI50 was 5.65 µM in the test on OVCAR-8 ovarian; 12.6 µM in the test on SK-MEL-2 melanoma; 14.5 µM in the test on HCC-2998 colon; 12.6 µM in the test with UACC-257 melanoma; 14.6 µM in the test with NCI-H460 lung; 14 µM with SNB-19 CNS. The GI50 with UO-31 renal is 17 µM; in the test with KM12 colon, 12 µM; with EKVX NSCLC, 20.2 µM. In addition, the TGI with OVCAR-8 ovarian was 82.3 µM; in the test on SK-MEL-2 melanoma, 29.8 µM; in the test on HCC-2998 colon, 33.7 µM; in the test on UACC-257 melanoma, 45.8 µM; with NCI-H460 lung, 88.2 µM; with SNB-19 CNS it was above 100 µM. Besides, the values for the TGI in the test on UO-31 renal, in the test on KM12 colon and with EKVX NSCLC were above 100 µM, 41.8 µM and 65.7 µM, respectively.

Take `C=C(C)CN(CC#N)CC(=C)C`: the TGI with OVCAR-8 ovarian, in the test with SK-MEL-2 melanoma, in the test with HCC-2998 colon, in the test with PC-3 prostate, with UACC-257 melanoma and in the test on SNB-19 CNS was above 100 µM in each case. The TGI with UO-31 renal, with KM12 colon and in the test on EKVX NSCLC was above 100 µM in each case.

Turning to `O=c1ccnc2c1ccc1[nH]cccc12`, the TGI in the test with OVCAR-8 ovarian, in the test on SK-MEL-2 melanoma, in the test with HCC-2998 colon, with UACC-257 melanoma, with NCI-H460 lung and in the test with SNB-19 CNS was above 100 µM each time. For the same compound, the TGI with UO-31 renal, in the test on KM12 colon and in the test with EKVX NSCLC was above 100 µM throughout.
